Counter-ions that a name gives are not always drawn.
What was measured:
[1] = Identification of TW01003 metabolites in pig urine after i.v. administration (HPLC, sulfatase treatment); format: in vivo; details: i.v. TW01003 200 mg, urine 60 min after dosing
Text: Crossbred 3-4-month-old pigs weighing 40–50 kg, obtained from the Animal Technology Institute, Taiwan (Miaoli, Taiwan), were used in a preliminary metabolic study for establishing the HPLC analytical method for the identification of TW01003 and its metabolites. The phase II conjugate TW01003 sulfate was first isolated from pig urine as an authentic sample for analysis. Male Wistar rats (200–250 g) for pharmacokinetic studies were purchased from the Laboratory Animal Center of National Taiwan University (Taipei, Taiwan). The animals were pathogen free and allowed to acclimate to the environmentally controlled quarters (24 ± 1°C and 12 : 12 h light-dark cycle) for at least 5 days before the experiments. Animal studies were conducted in accordance with the Guide for the Care and Use of Laboratory Animals.
In order to establish a feasible analytical method for the identification of TW01003 metabolites in a biological system, a test solution containing 200 mg of TW01003 was first injected into a 40–50 kg pig. Fresh urine (1 mL) was collected 60 min after dosing, filtered through a 0.22 μm Millipore filter, and subjected to HPLC analysis. Typical HPLC chromatograms of urine sample of untreated pig (Figure 2(a)), urine samples upon i.v. dosing of TW01003 (Figure 2(b)), and urine samples after sulfatase treatment (Figure 2(c)) are depicted.

[2] = Pharmacokinetics of TW01003 and TW01003 sulfate after i.v. administration of TW01003 in Wistar rats; format: in vivo, rat; details: for Cmax / MRT inf / Vd / clearance / half-life: male, rat, iv; for Cmax / MRT inf / Vd / clearance / half-life / AUMCINF / AUCINF / AUCall: plasma, i.v. TW01003 2.0 mg/kg; for Cmax / MRT inf / Vd / clearance / half-life / AUMCINF: n = 6, mean ± SD; for AUCINF: n = 6, time 0 to infinite; for AUCINF / AUCall: mean ± SD; for AUCall: n = 6, time 0 to last sampling time
Experimental: Single-dose TW01003 in a solution (1 mL) containing a 9 : 1 (v/v) ratio of vehicle V : 10% Na2CO3(aq) was used for animal studies in pig or in male Wistar rats. For metabolic studies, the TW01003 test solution was administered intravenously (7 mg/kg, n = 1) to the tail vein or orally (36 mg/kg, n = 1) by a feeding tube. For pharmacokinetic studies, the test solution was administered intravenously to the tail vein of Wistar rats (2.0 mg/kg, 1 mL, n = 6). The rats were put under a heating lamp to maintain body temperatures at 37°C throughout the experiment. All procedures involving the use of animals were approved by the Institutional Animal Care and Use Committee of Taipei Medical University.
Blood samples (0.5 mL) were withdrawn from the carotid artery of rats at time intervals of 5, 15, 30, 45, 60, 90, 120, 180, and 240 min. Heparin sodium (25 IU/mL in 0.3 mL of saline) was added, and the blood samples were centrifuged (5,585 g) at 4°C for 8 min. The plasma was frozen immediately and kept at −78°C until analysis. The plasma sample (150 μL) was mixed with a sulfatase solution (200 IU/mL, 50 μL) at 37°C for 2 h. The plasma sample (150 μL) mixed with 50 μL of a buffer solution (pH 5.0) was used for the control group. The internal standard solution was then added, and the solution was centrifuged (5,585 g) for 10 min. The supernatant was concentrated to dryness with nitrogen gas. The D5W vehicle (200 μL) was then added to the residue, and the solution was subjected to HPLC analysis.
We established the plasma concentration-time profile. The area under the plasma concentration-time profile (AUC) and other pharmacokinetic parameters (peak concentration: C max; time to reach C max: T max; area under the moment curve: AUMC; volume of distribution: V D) were calculated using the log-linear trapezoidal rule. […] Terminal half-life (t 1/2) was compartment model-independently estimated. Data analysis was performed using Microsoft Excel, and data were represented as mean ± standard deviation (SD) for n experiments. Treatment differences were evaluated by the paired t-test.

[3] = Metabolic study of TW01003 in a rat after i.v. administration (plasma, enzymatic treatment, HPLC); format: in vivo
Experimental: Single-dose TW01003 in a solution (1 mL) containing a 9 : 1 (v/v) ratio of vehicle V : 10% Na2CO3(aq) was used for animal studies in pig or in male Wistar rats. For metabolic studies, the TW01003 test solution was administered intravenously (7 mg/kg, n = 1) to the tail vein or orally (36 mg/kg, n = 1) by a feeding tube. For pharmacokinetic studies, the test solution was administered intravenously to the tail vein of Wistar rats (2.0 mg/kg, 1 mL, n = 6). The rats were put under a heating lamp to maintain body temperatures at 37°C throughout the experiment. All procedures involving the use of animals were approved by the Institutional Animal Care and Use Committee of Taipei Medical University. Blood samples (0.5 mL) were withdrawn from the carotid artery of rats at time intervals of 5, 15, 30, 45, 60, 90, 120, 180, and 240 min. Heparin sodium (25 IU/mL in 0.3 mL of saline) was added, and the blood samples were centrifuged (5,585 g) at 4°C for 8 min. The plasma was frozen immediately and kept at −78°C until analysis. The plasma sample (150 μL) was mixed with a sulfatase solution (200 IU/mL, 50 μL) at 37°C for 2 h. The plasma sample (150 μL) mixed with 50 μL of a buffer solution (pH 5.0) was used for the control group. The internal standard solution was then added, and the solution was centrifuged (5,585 g) for 10 min. The supernatant was concentrated to dryness with nitrogen gas. […]

[4] = system: vascular endothelial growth factor- (VEGF-) induced angiogenesis; test: Matrigel with VEGF-induced angiogenesis after oral treatment in mice; format: in vivo; details: oral TW01003 3 mg/kg, unpublished data
[5] = system: 60 human disease-oriented cancer cell panel; parameters: method as in PMID 23567646; details: cited from earlier work
[6] = Preliminary pharmacokinetic study, oral administration to rats; format: in vivo; details: unpublished data

Row | metabolite found in pig urine [1] | clearance rate relative to TW01003 ([2]; i.v. TW01003, n = 6) | residence time (MRTINF) relative to TW01003 ([2]; i.v. TW01003, n = 6) | systemic exposure (AUCINF) relative to TW01003 ([2]; i.v. TW01003, n = 6) | volume of distribution relative to TW01003 ([2]; i.v. TW01003, n = 6) | Cmax [2] | MRT inf [2] | Vd [2] | clearance [2] | half-life [2] | AUMCINF [2] | AUCINF [2] | AUCall [2] | metabolite in rat plasma after i.v. administration ([3]; Wistar rat, i.v. TW01003 6.7 mg/kg, n = 1) | oral fraction absorbed [6] | clearance in words ([3]; rat, i.v. 6.7 mg/kg or oral 36.0 mg/kg, regardless of administration method) | Compound | hemoglobin count of the matrigel reduced to [4] | antitumor activity in words [5]
1 | major metabolite | 2.3 times lower | seven times longer | 2.5 times higher | three times higher | 1310 ± 640 ng/mL | 1.44 ± 0.33 h | 4.43 ± 1.52 L/kg | 51.3 mL/min/kg | 1.31 ± 0.22 h | 1.01 ± 0.36 h∗h∗μg/mL | 0.71 ± 0.25 h∗μg/mL | 0.52 ± 0.20 h∗μg/mL | major metabolite | – | – | O=c1[nH]/c(=C\c2ccc(OS(=O)(=O)O)cn2)c(=O)[nH]/c1=C\c1ccccc1 [TW01003 sulfate] | – | –
2 | – | – | – | – | – | 2200 ± 250 ng/mL | 0.2 ± 0.06 h | 1.41 ± 0.41 L/kg | 118 mL/min/kg | 0.76 ± 0.14 h | 0.06 ± 0.02 h∗h∗μg/mL | 0.29 ± 0.04 h∗μg/mL | 0.28 ± 0.04 h∗μg/mL | – | 1.72% | cleared fairly rapidly | O=c1[nH]/c(=C/c2ccc(O)cn2)c(=O)[nH]/c1=C/c1ccccc1 [TW01003, (3E,6E)-3-Benzylidene-6-[(5-hydroxypyridin-2-yl)methylene]piperazine-2,5-dione] | < 1% | broad spectrum of antitumor activities
